Here are results for one compound from publication PMC8222276 (Communications Biology, 2021).

For experiment [1], the target named is T1, AM1 receptor (CLR-RAMP2) in HUVECs (Homo sapiens, UniProt O60895+Q16602).
T1 construct: HUVECs specifically express the AM1 receptor alone; host or cells: primary HUVECs
Nature of the experiment: ERK1/2 phosphorylation in HUVECs. Type of experiment: cell-based. Here is the method:
(§1) Data are analysed using a three-parameter non-linear regression curve or the operational model of receptor agonism. g–h Signalling bias plots were calculated as ∆Log(τ/KA) (g) or ∆∆Log(τ/KA) (h) for each agonist and for each signalling pathway. […] Solid arrows indicate known pathways. Dashed arrows represent possible pathways.
Data are analysed using a three-parameter non-linear regression curve. All data represent mean ± SEM of n independent experiments. Statistical significance determined compared to control using an unpaired Student’s t test with Welch’s correction (*p < 0.05; **p < 0.01; ***p < 0.001).
Primary cells were grown in 6 well plates, on the day of the experiment media was replaced with serum free media 4 h prior to cell harvesting. Tyrpsin-EDTA was used to dissociate the cells and they were collected by centrifugation, counted and re-suspended HBSS/BSA (0.1%). Ligands were also diluted in HBSS/BSA. Cells were then plated on 384 well plates in 8 μl aliquots at a density of 20,000 cells/well. Next, ligands were added (4 μl) for 5 min stimulation at room temperature. Cells were then lysed as per to the manufacturer’s instructions with 4 μl of lysis buffer (Cisbio phosphor-ERK1/2 cellular assay kit, Invitrogen, UK) for 30 min shaking at room temperature. The 2 specific antibodies; were pre-mixed in a 1:1 ratio. 4 μl of this was added to each well and the plate incubated for a further 2 h. […] Antagonist studies were performed in the same way through co-stimulation with PTX (200 ng/ml), Rp-8-Br-cAMPS (100 μM), YM-254890 (100 nM), or ESI-09 (100 μM) as appropriate alongside control-treated cell.
(§2) All sample sizes were determined, and data analysed, in accordance with the guidelines described by Curtis M et al.[65]. All experiments were appropriately controlled using ‘system pathway’ agonists. If any of these pathway controls generated inappropriate responses, then the entire data set was removed from analysis. […] Data analysis for cAMP accumulation, Ca^2+i mobilisation, NO accumulation, pERK1/2 activation, and cell proliferation assays were performed in GraphPad Prism 8.4 (GraphPad Software, San Diego). Data were fitted to obtain concentration–response curves using either the three-parameter logistic equation using to obtain values of Emax and pEC50 or the operational model of agonism. Statistical differences were analysed using one-way ANOVA followed by Dunnett’s post-hoc (for comparisons amongst more than two groups) or unpaired Student’s t test with Welch’s correction (for comparison between two groups). To account for the day-to-day variation experienced from the cultured cells, we used the maximal level of cAMP accumulation from cells in response to 100 μM forskolin stimulation was used as a reference, 10 μM ionomycin for Ca^2+i assays, 10 μM phorbol 12-myristate 13-acetate (PMA) for pERK1/2 activation, 10 μM acetylcholine for NO production and 10 μM VEGF for cell proliferation. […] Where appropriate the operational model for receptor agonism[27] was used to obtain efficacy (τ) and equilibrium disassociation constant (KA) values. In both cases, this normalisation removes the variation due to differences in days but retains the variance for control values. The means of individual experiments were combined to generate the curves shown. Having obtained values for τ and KA these were then used to quantify signalling bias as the change in Log(τ/KA)[19],[28]. Error for this composite measure was propagated by applying Eq. 1.1 PooledSEM=(SEMA)^2+(SEMB)^2 Where, SEMA and SEMB are the standard error of measurement A and B.

The next experiment has as its system HUVECs. Nature of the experiment: cell proliferation (72 h) of HUVECs. To be noted: HUVEC. It is filed as cell-based, human. The method, then: as §1
Both endothelial cell lines and HCMs were seeded at a density of 2500 cells/well in a clear flat bottom 96-well plate (Corning, UK) and incubated at 37 °C in 5% CO2. After 24 h, cells were exposed to test compounds or vehicle, in complete endothelial cell growth media (HUVECs) or myocyte growth media (HCMs). Cells were incubated for a further 72 h at 37 °C in 5% CO2. After 72 h incubation, 5 μl of Cell Counting Kit–8 (CCK-8, Sigma, UK) was added to each well and cells were then incubated for another 2 h at 37 °C in 5% CO2 and in the dark[61]. The absorbance of each well was measured using a Mithras LB940 microplate reader with an excitation of 450 nm. The absorbance is directly proportional to the number of viable cells. Cell proliferation was calculated as a percentage of number of cells treated with vehicle alone.
as §2

In experiment [2] the target is T2, AM1 receptor (CLR-RAMP2) in HUAECs (Homo sapiens, UniProt O60895+Q16602).
T2 construct: host or cells: primary HUAECs
The experiment in a line: mobilisation of Ca2+i in HUAECs. Type of experiment: cell-based. The method, then:
All cell lines were plated at 20,000 cells/well on 96-well black clear-bottom plates (Costar, UK) 24 h before the experiment. […] Cells were then washed twice with calcium-free HBSS, then were left in 100 μl calcium-free HBSS for the duration of the assay. […] Data was normalised to the response seen with 10 μM Ionomycin.
as §2
(1 picture or pasted object on this page, not shown here)

Experiment [3] concerns the target T2, AM1 receptor (CLR-RAMP2) in HUAECs. The experiment in a line: ERK1/2 phosphorylation in HUAECs. Type of experiment: cell-based. The method, then:
Primary cells were grown in 6 well plates, on the day of the experiment media was replaced with serum free media 4 h prior to cell harvesting. Tyrpsin-EDTA was used to dissociate the cells and they were collected by centrifugation, counted and re-suspended HBSS/BSA (0.1%). Ligands were also diluted in HBSS/BSA. Cells were then plated on 384 well plates in 8 μl aliquots at a density of 20,000 cells/well. Next, ligands were added (4 μl) for 5 min stimulation at room temperature. Cells were then lysed as per to the manufacturer’s instructions with 4 μl of lysis buffer (Cisbio phosphor-ERK1/2 cellular assay kit, Invitrogen, UK) for 30 min shaking at room temperature. The 2 specific antibodies; were pre-mixed in a 1:1 ratio. 4 μl of this was added to each well and the plate incubated for a further 2 h.
as §2, with “B. […]” for “B.”

The mark [4] stands for this setting: pERK1/2, HUVEC, operational model, mean ± SEM.
[5] abbreviates: proliferation, operational model, mean ± SEM.
The mark [6] stands for this setting: Ca2+i, HUAEC, operational model, mean ± SEM.
Setting [7] is: pERK1/2, HUAEC, operational model, mean ± SEM.

T2 sequence (Q16602 23-461): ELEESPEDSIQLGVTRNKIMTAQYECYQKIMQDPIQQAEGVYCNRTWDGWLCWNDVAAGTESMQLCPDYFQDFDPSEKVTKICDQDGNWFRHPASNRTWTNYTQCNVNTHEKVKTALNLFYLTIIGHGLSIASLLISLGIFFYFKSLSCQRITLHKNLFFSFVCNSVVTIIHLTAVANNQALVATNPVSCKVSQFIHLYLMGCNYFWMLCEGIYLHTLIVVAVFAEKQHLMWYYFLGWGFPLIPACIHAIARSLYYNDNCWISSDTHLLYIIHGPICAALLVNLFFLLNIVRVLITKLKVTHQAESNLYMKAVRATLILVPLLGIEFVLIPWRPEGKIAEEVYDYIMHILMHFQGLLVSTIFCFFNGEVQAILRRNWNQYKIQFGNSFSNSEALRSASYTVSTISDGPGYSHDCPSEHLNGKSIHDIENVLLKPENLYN
T2 sequence (O60895 43-175): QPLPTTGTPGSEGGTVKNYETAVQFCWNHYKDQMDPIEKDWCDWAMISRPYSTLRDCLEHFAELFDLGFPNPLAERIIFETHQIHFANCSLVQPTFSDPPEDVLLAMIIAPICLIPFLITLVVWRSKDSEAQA
T1 sequence (Q16602 23-461): as the sequence (Q16602 23-461) above
T1 sequence (O60895 43-175): as the sequence (O60895 43-175) above

What is called pEC50 is the EC50 on a negative log10 scale, so that one unit is a factor of ten. Take `CSCC[C@H](NC(=O)[C@H](CC(C)C)NC(=O)[C@H](CCC(N)=O)NC(=O)[C@H](Cc1c[nH]c2ccccc12)NC(=O)[C@H](CC(C)C)NC(=O)[C@H](CCCNC(=N)N)NC(=O)[C@H](Cc1c[nH]cn1)NC(=O)[C@H](CO)NC(=O)[C@H](CC(C)C)NC(=O)[C@H](CC(N)=O)NC(=O)[C@H](CCC(N)=O)NC(=O)[C@@H](NC(=O)[C@H](CCC(N)=O)NC(=O)[C@@H]1CSSC[C@H](NC(=O)CNC(=O)[C@@H](NC(=O)[C@H](CCCNC(=N)N)NC(=O)[C@H](CC(C)C)NC(=O)[C@H](CC(C)C)NC(=O)[C@H](CCC(N)=O)NC(=O)[C@H](C)NC(=O)[C@H](CCC(N)=O)NC(=O)[C@@H](N)[C@@H](C)O)C(C)C)C(=O)N[C@@H](C(C)C)C(=O)N[C@@H](CC(C)C)C(=O)NCC(=O)N[C@@H]([C@@H](C)O)C(=O)N1)C(C)C)C(=O)NCC(=O)N1CCC[C@H]1C(=O)N[C@@H](C)C(=O)NCC(=O)N[C@@H](CCCNC(=N)N)C(=O)N[C@@H](CCC(N)=O)C(=O)N[C@@H](CC(=O)O)C(=O)N[C@@H](CO)C(=O)N[C@@H](C)C(=O)N1CCC[C@H]1C(=O)N[C@H](C(=O)N[C@@H](CC(=O)O)C(=O)N1CCC[C@H]1C(=O)N[C@@H](CO)C(=O)N[C@@H](CO)C(=O)N1CCC[C@H]1C(=O)N[C@@H](Cc1c[nH]cn1)C(=O)N[C@@H](CO)C(=O)N[C@@H](Cc1ccc(O)cc1)C(N)=O)C(C)C` [AM2, adrenomedullin 2]: the Emax was 33.3 ± 4.59% in experiment [1] (HUVEC); 103.74±1.43% with HUVECs (proliferation, 72 h, CCK-8, mean ± SEM); 50.1 ± 3.22% in experiment [2]; 17.6 ± 2.44% in experiment [3]. In addition, the “mechanism of ERK1/2 stimulation” value in experiment [1] (HUVEC) is listed as “mediated in a Gi/o-dependent manner”. Further, the “effect of PTX on ERK1/2 phosphorylation” value in experiment [1] (HUVEC, PTX) is recorded as “suppression of ERK1/2 phosphorylation”. Further, the “Transducer coefficient Log(τ/KA)” value was 5.06±0.21 in experiment [1] (pERK1/2, HUVEC, calculated from Table S1); 5.74±0.92 in the experiment with HUVECs (Growth, calculated from Table S1); 7.60±0.14 in experiment [2] (Ca2+i, HUAEC, calculated from Table S1); 4.76±0.35 in experiment [3] (pERK1/2, HUAEC, calculated from Table S1). The logτ is on record as -0.35±0.08 in experiment [1] (setting [4]), -1.29±0.20 in the experiment on HUVECs (setting [5]), -0.01±0.05 in experiment [2] (setting [6]) and -0.67±0.12 in experiment [3] (setting [7]). For the same compound, the pKA in experiment [1] (setting [4]) is 5.41±0.19; in the experiment on HUVECs (setting [5]) it was 7.03±0.90; in experiment [2] (setting [6]), 7.61±0.13; in experiment [3] (setting [7]) it was 5.43±0.33. In addition, the pEC50 in the experiment on HUVECs (proliferation, 72 h, mean ± SEM of 3-6 data sets) was found to be 7.06±0.9.
